Measurements reported in patent US20170348258A1, “3-Amino Benzamide Derivative Serving As B-Lactam Auxiliary Antibiotic, Preparation Method and Use Thereof” (THE HONG KONG POLYTECHNIC UNIVERSITY, priority 2014, published 2017).
Values after ≈ are worked out from the molar mass of the structure shown. Like-named read-outs stand apart in the source and are kept apart here.

What was measured:
S. aureus 29213 = assay: Antibacterial susceptibility test (MIC, microbroth dilution); format: cell-based; settings: 18 hours at 37° C., >90% inhibition of bacterial growth
Source text: (§1) The bacterial strains used in microbial susceptibility test were E. coli, S. aureus 29213 and B. subtilis 168. E. coli and S. aureus 29213 were obtained from the laboratory of the Hong Kong Polytechnic University. B. subtilis 168 was purchased from American Type Culture Collection (USA). The mammalian cell lines L929 (mouse peritoneal fibroblast), LCC6 (a wild type breast cancer cell line), LCC6MDR (P-gp over-expressed breast cancer cell line) were stocks in our department. Nutrient Agar, tryptone and yeast extract were purchased from Oxoid Limited (Nepean, Ontario, Canada). Luria-Bertani (LB) medium was prepared from 2 g tryptone, 1 g yeast extract, and 2 g sodium chloride in 200 ml deionized water and sterilized. Müller-Hinton broth (MHB), cation-adjusted Müller-Hinton broth (MHB) and trypticase soy broth (TSB) for microbial susceptibility test were purchased from Becton, Dickinson and Company (New Jersey, USA). A microplate reader (Bio-Rad Laboratories Model 680) is used to measure bacterial growth and cytotoxicity. An Olympus FSX100® Bio Imaging Navigator Microscope was used to observe the morphology of B. subtilis cell.
(§2) The minimum inhibitory concentration (MIC) of each compound was determined using microbroth dilution method according to the National Committee for Clinical Laboratory Standards (CLSI) guidelines. All Compounds were dissolved in DMSO and diluted in a serial two-fold manner. A single colony of bacterial strain on a TSB agar plate was inoculated in 5 mL MHB or CA-MHB. The bacterial cells were incubated at 37° C. until the optimal density (OD600) of the growing cells reached 1.0. The cells were then diluted to a final concentration of approximately 5×10^5 CFU/mL in a serial two-fold manner in a 96-well microtiter plate (Iwaki, Japan). Compound 3 and PC190723 were used as positive controls. […] Table 1 below summarizes the MIC of all synthesized compounds.

E. coli = assay: as above; format: cell-based; settings: 18 hours at 37° C., >90% inhibition of bacterial growth
Source text: as §1, §2

B. subtilis 168 = assay: as above; format: cell-based; settings: 18 hours at 37° C., >90% inhibition of bacterial growth, read-out: MIC, BS 168
Source text: as §1, §2

MRSA strain USA300#757 = assay: Fractional Inhibitory Concentration Index (FICI) determination; format: cell-based, S. aureus
Procedure: The bacterial strains used in this study were clinically isolated MRSA strains USA300#757 and #2960 which were obtained from our laboratory. Determination of the Fractional Inhibitory Concentration Index (FICI) was adopted by the Müller-Hinton broth (MHB) dilution method as previously described. Twelve serial two-fold dilutions of PC190723, F332 and F361 were prepared in the 96-well microplate with concentration ranging from 512 to 0.25 μg/mL. […] Lastly, the compounds and the β-lactams were mixed at a 1:1 ratio and subjected to two-fold dilution as described previously. Each microplate well contained 100 μL of MHB supplemented with compounds alone, β-lactams alone or the mixture of compounds and β-lactams. Overnight cultures of S. aureus in the Müller-Hinton broth was diluted to OD595 of 0.08-0.1 in saline and added in each of the microplate well. The plates were incubated at 37° C. for 20 h. All tests were performed in duplicate and the inhibition of bacterial growth was determined by visualization. The FICI of compounds and β-lactams were calculated as followed: FICI=(MIC of combination of compound and β-lactam/MIC of compound alone)+(MIC of combination of compound and β-lactam/MIC of β-lactam alone).

MRSA strain USA300#2960 = assay: as above; format: cell-based, S. aureus
Procedure: The bacterial strains used in this study were clinically isolated MRSA strains USA300#757 and #2960 which were obtained from our laboratory. Determination of the Fractional Inhibitory Concentration Index (FICI) was adopted by the Müller-Hinton broth (MHB) dilution method as previously described. Twelve serial two-fold dilutions of PC190723, F332 and F361 were prepared in the 96-well microplate with concentration ranging from 512 to 0.25 μg/mL. A series of two-fold dilutions of ampicillin, cloxacillin and cefuroxime were also prepared following the same procedure. Lastly, the compounds and the β-lactams were mixed at a 1:1 ratio and subjected to two-fold dilution as described previously. Each microplate well contained 100 μL of MHB supplemented with compounds alone, β-lactams alone or the mixture of compounds and β-lactams. Overnight cultures of S. aureus in the Müller-Hinton broth was diluted to OD595 of 0.08-0.1 in saline and added in each of the microplate well. The plates were incubated at 37° C. for 20 h. All tests were performed in duplicate and the inhibition of bacterial growth was determined by visualization. The FICI of compounds and β-lactams were calculated as followed: FICI=(MIC of combination of compound and β-lactam/MIC of compound alone)+(MIC of combination of compound and β-lactam/MIC of β-lactam alone).

Row | Structure (SMILES) | MIC (S. aureus 29213; Staphylococcus aureus, 29213) [µM] | MIC (E. coli; Escherichia coli) [µM] | MIC (B. subtilis 168; Bacillus subtilis, 168) [µM] | MIC (S. aureus 29213) [µM] | MIC (E. coli) [µM] | MIC (B. subtilis 168) [µM] | further results
1 | CCCCCCCCCNc1c(Br)cc(F)c(C(N)=O)c1F [Compound F371, 4-bromo-2,6-difluoro-3-(nonylamino)benzamide] | > 100 | > 100 | 6.25 (≈ 2.36 µg/mL) |  |  |  | 
2 | CCCCOc1cccc(CNc2ccc(F)c(C(N)=O)c2F)c1 [Compound F373, 3-((3′-butoxybenzyl)amino)-2,6-difluorobenzamide] |  |  |  | 50 (≈ 16.7 µg/mL) | >100 | 25 (≈ 8.36 µg/mL) | 
3 | NC(=O)c1c(F)ccc(OCc2nc3cc(Cl)cnc3s2)c1F [PC190723, reference compound] |  |  |  | 0.5 (≈ 0.178 µg/mL) | >2 | 0.5 (≈ 0.178 µg/mL) | FICI with Cefotaxime (MRSA strain USA300#757): 1.02; FICI with Meropenem (MRSA strain USA300#757): 0.31; FICI with Cefotaxime (MRSA strain USA300#2960): 1.03; FICI with Meropenem (MRSA strain USA300#2960): 0.63
4 | CCCCCCCCCNc1cccc(C(N)=O)c1 [Compound F411, 3-(nonylamino)benzamide] | > 100 | > 100 | 6.25 (≈ 1.64 µg/mL) |  |  |  | 
5 | NC(=O)c1c(F)ccc(N(Cc2ccc(F)cc2F)Cc2ccc(F)cc2F)c1F [Compound F365, 3-(bis(2′,4′-difluorobenzyl)amino)-2,6-difluorobenzamide] |  |  |  | >100 | >100 | <50 | 
6 | CCCCCCCCC(=O)Nc1ccc(F)c(C(N)=O)c1F [Compound F368, 2,6-difluoro-3-nonanamidobenzamide] | > 100 | > 100 | > 100 |  |  |  | 
7 | CC(C)=CCC/C(C)=C/CNc1ccc(F)c(C(N)=O)c1F [Compound F369, (E)-3-((3,7-dimethyl-2,6-octadien-1-yl)amino)-2,6-difluorobenzamide] | > 100 | > 100 | 50 (≈ 15.4 µg/mL) |  |  |  | 
8 | CCCCCCCCCN(C)c1cccc(C(N)=O)c1 [Compound F413, 3-(methyl(nonyl)amino)benzamide] | > 100 | > 100 | > 100 |  |  |  | 
9 | NC(=O)c1c(F)ccc(NCc2cccc(OCc3ccc(C(F)(F)F)cc3)c2)c1F [Compound F378, 2,6-difluoro-3-((3′-((4″-(trifluoromethyl)benzyl)oxy)benzyl)amino)benzamide] |  |  |  | >100 | >100 | >100 | 
10 | CCCCCOc1cccc(CNc2ccc(F)c(C(N)=O)c2F)c1 [Compound F376, 2,6-difluoro-3-((3′-(pentyloxy)benzyl)amino)benzamide] |  |  |  | 50 (≈ 17.4 µg/mL) | >100 | 12.5 (≈ 4.35 µg/mL) | 
11 | CCCCCCCCCCNc1ccc(F)c(C(N)=O)c1F [Compound F334, 3-(decylamino)-2,6-difluorobenzamide] | > 100 | > 100 | > 100 |  |  |  | 
12 | CCC(C)Oc1cccc(CNc2ccc(F)c(C(N)=O)c2F)c1 (stereo not shown) [Compound F377, 3-((3′-(sec-butoxy)benzyl)amino)-2,6-difluorobenzamide] |  |  |  | >100 | >100 | >100 | 
13 | CCCCCCCCN(CC)c1ccc(F)c(C(N)=O)c1F [Compound F410, 3-(ethyl(octyl)amino)-2,6-difluorobenzamide] | 50 (≈ 15.6 µg/mL) | > 100 | 25 (≈ 7.81 µg/mL) |  |  |  | 
14 | CCCCOCCCCNc1ccc(F)c(C(N)=O)c1F [Compound F350, 3-((4′-butoxy)butylamino)-2,6-difluorobenzamide] | > 100 | > 100 | > 100 |  |  |  | 
15 | NC(=O)c1c(F)ccc(N(Cc2c(F)cccc2F)Cc2c(F)cccc2F)c1F [Compound F367, 3-(bis(2′,6′-difluorobenzyl)amino)-2,6-difluorobenzamide] |  |  |  | >100 | >100 | >100 | 
16 | CCCCCCCCCNc1cc(C(N)=O)c(F)cc1F [Compound F345, 2,4-difluoro-5-(nonylamino)benzamide] | > 100 | > 100 | 100 (≈ 29.8 µg/mL) |  |  |  | 
17 | CCCCCCCCNc1cccc(C(N)=O)c1 [Compound F412, 3-(octylamino)benzamide] | > 100 | > 100 | 25 (≈ 6.21 µg/mL) |  |  |  | 
18 | CCCCCCCCCNc1ccc(F)c(C(N)=O)c1 [Compound F342, 2-fluoro-5-(nonylamino)benzamide] | > 100 | > 100 | 25 (≈ 7.01 µg/mL) |  |  |  | 
19 | CCCCCCCCN(C)c1cccc(C(N)=O)c1 [Compound F414, 3-(methyl(octyl)amino)benzamide] | > 100 | > 100 | > 100 |  |  |  | 
20 | NC(=O)c1c(F)ccc(N(Cc2ccc(F)c(F)c2)Cc2ccc(F)c(F)c2)c1F [Compound F363, 3-(bis(3′,4′-difluorobenzyl)amino)-2,6-difluorobenzamide] |  |  |  | 50 (≈ 21.2 µg/mL) | >100 | >100 | 

The next lines start with results.

Row | MIC (S. aureus 29213; Staphylococcus aureus, 29213) [µM] | MIC (E. coli; Escherichia coli) [µM] | MIC (B. subtilis 168; Bacillus subtilis, 168) [µM] | MIC (S. aureus 29213) [µM] | MIC (E. coli) [µM] | MIC (B. subtilis 168) [µM] | Structure (SMILES) | further results
21 | 50 (≈ 14.2 µg/mL) | > 100 | 6.25 (≈ 1.78 µg/mL) |  |  |  | CCCCCCCCNc1ccc(F)c(C(N)=O)c1F [Compound F333, 2,6-difluoro-3-(octylamino)benzamide] | 
22 | 25 (≈ 7.41 µg/mL) | > 100 | 6.25 (≈ 1.85 µg/mL) |  |  |  | CCCCCC/C=C\CNc1ccc(F)c(C(N)=O)c1F [Compound F370, (Z)-2,6-difluoro-3-(2-nonenylamino)benzamide] | 
23 | > 100 | > 100 | > 100 |  |  |  | NC(=O)c1c(F)ccc(N2CCCCC2)c1F [Compound F358, 2,6-difluoro-3-(piperidin-1-yl)benzamide] | 
24 |  |  |  | >100 | >100 | >100 | NC(=O)c1c(F)ccc(NCc2ccc(F)c(F)c2)c1F [Compound F362, 3-((3′,4′-difluorobenzyl)amino)-2,6-difluorobenzamide] | 
25 |  |  |  | >100 | >100 | >100 | NC(=O)c1c(F)ccc(NCc2c(F)cccc2F)c1F [Compound F366, 3-((2′,6′-difluorobenzyl)amino)-2,6-difluorobenzamide] | 
26 |  |  |  | >100 | >100 | >100 | NC(=O)c1c(F)ccc(NCc2ccc(F)cc2F)c1F [Compound F364, 3-((2′,4′-difluorobenzyl)amino)-2,6-difluorobenzamide] | 
27 | > 100 | > 100 | > 100 |  |  |  | NC(=O)c1c(F)ccc(N2CCCC2)c1F [Compound F357, 2,6-difluoro-3-(pyrrolidin-1-yl)benzamide] | 
28 | 50 (≈ 13.5 µg/mL) | > 100 | 50 (≈ 13.5 µg/mL) |  |  |  | CCCCCCCNc1ccc(F)c(C(N)=O)c1F [Compound F391, 2,6-difluoro-3-(heptylamino)benzamide] | 
29 | 12.5 (≈ 3.73 µg/mL) | > 100 | 25 (≈ 7.46 µg/mL) |  |  |  | CCCCCCCCN(C)c1ccc(F)c(C(N)=O)c1F [Compound F409, 2,6-difluoro-3-(methyl(octyl)amino)benzamide] | 
